Reference: patent publication US20220305079A1, “THERAPEUTIC PEPTIDES” (COHBAR, INC., priority 2019, published 2022)
Square brackets hold non-standard residues; d marks the D form. Ends that are not written are not given here.

Experiments:
[1] = test system: MCF-7 human breast cancer cell line; assay: MTS Assay in MCF-7 Cells (cell viability); details: test peptides at 10 μM, 72 hours, relative to DMSO control
Protocol: (§1) Peptides and reference compound staurosporine (Selleckchem) were dissolved with DMSO at 10 mM stock. CellTiter 96® AQueous One Solution Reagent (MTS assay reagent) was purchased from Promega (Madison, Wis.). MCF-7 human breast cancer cell line was purchased from American Type Culture Collection (Manassas, Va.). MCF-7 cells were grown in EMEM Medium supplemented with 10% FBS and 0.01 mg/ml human recombinant insulin. 100 μg/ml penicillin and 100 μg/ml streptomycin were added to the culture medium. […] 5 μl of CellTiter 96® AQueous One Solution Reagent (MTS assay reagent) was added to each well and incubated at 37° C., 5% CO2 for 5 hours. Absorbance at 492 nm was recorded by Envision 2104 Multilabel Reader. Treatment with DMSO alone was used as the cell viability activity control.

[2] = test system: MDA-MB-231 human breast cancer cell line; assay: Caspase 3/7 Activity in MDA-MB-231 Cells (Caspase-Glo 3/7 Assay); format: cell-based; details: test peptides at 10 μM, 18 hours, relative to DMSO control
Protocol: The effect of the peptides on cell death/survival can be assessed using a caspase-3 assay. Peptides were dissolved with DMSO at 10 mM stock. […] Staurosporine (Selleckchem) was dissolved with DMSO at 1 mM stock. Caspase-Glo 3/7 Assay Reagent was purchased from Promega (Madison, Wis.). MDA-MB-231 human breast cancer cell line was purchased from American Type Culture Collection (Manassas, Va.). MDA-MB-231 cells were grown in DMEM Medium supplemented with 10% FBS. 100 μg/ml penicillin and 100 μg/ml streptomycin were added to the culture medium. […] 25 μl of Caspase-Glo 3/7 Assay Reagent was added to each well and incubated at 37° C., 5% CO2 for 1 hour. Luminescence for each sample well on the plate was measured by Envision 2104 Multilabel Reader (PerkinElmer, Santa Clara, Calif.). Activity was calculated relative to DMSO control.

[3] = test system: MDA-MB-231 human breast cancer cell line; assay: MTS Assay in MDA-MB-231 Cells (cell viability); format: cell-based; details: 72 hours, relative to DMSO control; test concentration not given
Protocol: (§2) Test compounds and reference compound staurosporine (Selleckchem) were all dissolved with DMSO at 10 mM stock. […] Activity was calculated relative to DMSO control. […] Cell viability was 3% of the DMSO control value for Staurosporine (10 uM).

Mouse 3T3-L1 adipocytes = assay: Free Fatty Acid Levels in 3T3-L1 Adipocytes; details: for Free Fatty Acid Levels in 3T3-L1 Adipocytes Expressed as a Percent Isoproterenol Control, Percent of Control Activity: test peptides 25 μM, 20-22 hours then isoproterenol (1 nM) 3 hours
Protocol: Mouse 3T3-L1 adipocytes were seeded at 3,000 cells per well in 96-well plates in Pre-adipocyte Medium (Zen-Bio, Durham, N.C.) and grown to confluence at 37° C. in a humidified atmosphere of 5% CO2/95% air. Two days after confluence, cells were placed in Adipocyte Differentiation Medium (Zen-Bio, Durham, N.C.) and cultured for three additional days at 37° C. in a humidified atmosphere of 5% CO2/95% air. The culture media was then replaced with Adipocyte Maintenance Medium (Zen-Bio) and the cells maintained for an additional 9-12 days at 37° C. in a humidified atmosphere of 5% CO2/95% air with partial medium replacement every other day. Following 12-15 days' differentiation, test peptides were added to a final concentration of 25 μM and incubated for 20-22 hours in Adipocyte Maintenance Medium. After 20-22 hours, isoproterenol (1 nM) was added to all wells except untreated controls and test peptides were replenished. Cells were incubated for a further 3 hours in Assay Buffer (Zen-Bio). Free fatty acid concentrations in the media were determined using a Free Fatty Acid Assay Kit (Zen-Bio) according to the manufacturer's instructions using a plate reader (540 nm). Absorbance values were corrected for untreated background and expressed relative to isoproterenol treated cells. Treatment with isoproterenol (1 nM) alone was used as the free fatty acid level stimulatory control. The relative standard deviation of the isoproterenol control was <10%.

[4] = MTS Assay in MCF-7 Cells (cell viability); details: human
Protocol: as §1

[5] = MTS Assay in MDA-MB-231 Cells (cell viability); format: cell-based, human; details: human; Staurosporine 10 uM, positive control, MDA-MB-231 cells; read-out: Cell viability, % of the DMSO control value
Protocol: as §2

Compound | Free Fatty Acid Levels in 3T3-L1 Adipocytes Expressed as a Percent Isoproterenol Control, Percent of Control Activity (Mouse 3T3-L1 adipocytes) | also measured
2 (MTHQSHAYHIVKPSP) [compound 2] | 95% | MTS Assay in MCF-7 Cells, Percent of Control Activity [1]: 71%; Caspase 3/7 Activity in MDA-MB-231 Cells, Percent of Control Activity [2]: 51%; MTS Assay in MDA-MB-231 Cells, Percent of Control Activity [3]: 85%
3 (THQSHAYHIVKPSP; not fully specified) [compound 3] | 118% | 
4 (THQSH[dA]YHIVKPSP) [compound 4] | 134% | 
5 (HQSH[dA]YHIVKPSP) [compound 5] | 111% | 
7 (MWFDYFCMSPSIDEGLTLLV) [compound 7] | 104% | MTS Assay in MCF-7 Cells, Percent of Control Activity [1]: 63%; Caspase 3/7 Activity in MDA-MB-231 Cells, Percent of Control Activity [2]: 29%; MTS Assay in MDA-MB-231 Cells, Percent of Control Activity [3]: 81%
8 (WFDYFCMSPSIDEGLTLLV) [compound 8] | 45% | 
9 (WFDYFCMSPSIDEGLTL) [compound 9] | 35% | 
10 (WFDYFAMSPSADEGLTL) [compound 10] | 55% | 
12 (MVKGDSKYSEACRRVK) [compound 12] | 135% | MTS Assay in MCF-7 Cells, Percent of Control Activity [1]: 50%; Caspase 3/7 Activity in MDA-MB-231 Cells, Percent of Control Activity [2]: 52%; MTS Assay in MDA-MB-231 Cells, Percent of Control Activity [3]: 80%
13 (VKGDSKYSEACRRVK) [compound 13] | 113% | 
14 (VKGDSKYSEACRRV) [compound 14] | 112% | 
15 (VKGDSKYSEACR) [compound 15] | 128% | 
17 (MVLFFRSSKLQYGRLFRSLVG) [compound 17] | 75% | MTS Assay in MCF-7 Cells, Percent of Control Activity [1]: 40%; Caspase 3/7 Activity in MDA-MB-231 Cells, Percent of Control Activity [2]: 43%; MTS Assay in MDA-MB-231 Cells, Percent of Control Activity [3]: 75%
18 (VLFFRSSKLQYGRLFRSLVG) [compound 18] | 84% | 
19 (VLFFRSSKLQYGRLFRSLA) [compound 19] | 95% | 
20 (LFFRSSKLQYGRLFRSA) [compound 20] | 73% | 
22 (MVWLRLSGSKVEWVWG) [compound 22] | 93% | MTS Assay in MCF-7 Cells, Percent of Control Activity [1]: 47%; Caspase 3/7 Activity in MDA-MB-231 Cells, Percent of Control Activity [2]: 31%; MTS Assay in MDA-MB-231 Cells, Percent of Control Activity [3]: 75%
23 (VWLRLSGSKVEWVWG) [compound 23] | 71% | 
24 (VWLRLSGSKVEWVW; not fully specified) [compound 24] | 81% | 
25 ([dA]WLRLSGSKVEWV) [compound 25] | 93% | 
CN[C@@H]1C[C@H]2O[C@@](C)([C@@H]1OC)n1c3ccccc3c3c4c(c5c6ccccc6n2c5c31)C(=O)NC4 [staurosporine, reference compound] |  | viability at 72 h, 10 µM [4]: < 5%; viability at 72 h, 10 µM [5]: 3%
insulin [reference compound] |  | Free fatty acid levels, % of the isoproterenol control value (Mouse 3T3-L1 adipocytes; insulin 100 nM, positive control): < 5%
